According to article PMC11053631 (Pharmaceuticals, 2024):
≈ marks a conversion by molar mass, not a printed value. Where two headings read alike, the source gives them in different places.

What was measured:
[1] = Oral pharmacokinetic study in rats; format: in vivo; settings: Sprague Dawley, rat, fasted male rats, oral 200 mg/kg in soybean oil, plasma treated with β-glucuronidase/sulfatase
Procedure: The in vivo pharmacokinetic investigations of the CUR-L-CN co-crystal and the marketed CUR crystal were carried out in fasted male rats. In vivo, CUR is easily conjugated, and it can be conjugated with glucuronic acid and sulfate to form monoglucuronides, monosulfates, and mixed glucuronide/sulfates.
After administration, approximately 0.4 mL of blood was collected from the orbit of the rats into heparinized tubes at 20 min, 40 min, 1 h, 1.5 h, 2.5 h, 4 h, 6 h, and 8 h. Plasma samples (100 μL) were precisely aspirated and vortexed with 50 μL of β-glucuronidase and sulfatase buffer at 37 °C for 60 min. Plasma samples were protein precipitated by adding 0.45 mL of methanol (0.2% acetic acid). After 10 min of shaking, the samples were centrifuged at 14,000 rpm for 3 min. Subsequently, the supernatants were analyzed via HPLC/MS. All experimental procedures were approved by the Animal Ethics Committee.
HPLC methods and conditions were the same as 4.13. A 10 µL sample was injected each time, and the flow rate of the mobile phase was set as 0.6 mL/min.
The AUC0–t was calculated from plasma concentrations observed from 0 to 8 h using a linear trapezoidal approach.

[2] = rats, intravenous and oral administration; cited from earlier work
[3] = Wettability test by film flotation; format: physicochemical
Procedure: To confirm the hypothesis given in the section discussing […] surface analysis, wettability tests using film flotation methods were conducted in SGF with/without surfactants. […] The wettability test was performed in pure SGF and SGF with 0.1% sodium dodecyl sulfonate (SDS) or tween 80 using film flotation methods.

[4] = Powder dissolution in SGF and SIF; format: physicochemical; settings: for solubility at 180 min: thermodynamic from solid, 50 rpm, read-out: maximum solubility
Procedure: CUR-L-CN dissolves quickly and reaches its maximum concentration in 20 min. […] To understand this phenomenon, the residual powders after dissolution experiments were filtered and dried for PXRD analysis.
A mini bath dissolution device was used in the experiments, and a Julabo-5 heater was equipped for heating. The experiments were conducted at 37 °C with a rotational speed of 50 rpm. […] The dissolution rate experiments were measured in SGF and SIF containing 0.5% tween 80. SGF was prepared by diluting 16.4 mL of 10% HCl solution to 1000 mL with pure water. To prepare SIF, 6.8 g of KH2PO4 was dissolved in 500 mL of water; then, the pH was adjusted to 6.8 with NaOH solution with a concentration of 0.1 mol/L. At specified time points, i.e., 5 min, 10 min, 15 min, 20 min, 25 min, 30 min, 40 min, 50 min, 60 min, 90 min, 120 min, and 180 min, 0.5 mL of solution was withdrawn with a syringe. The collected solution was filtered through a 0.45 µm nylon filter and then subjected to HPLC determination. The dissolution studies of each solid form were conducted in triplicate (n = 3). After dissolution experiments, the residual samples were filtered and dried under vacuum for PXRD analysis.
The equipment has a diode array detector. An Agilent Zorbax Eclipse Plus C18 column was used in the experiments; it has a diameter of 4.6 mm, a length of 150 mm, and a filling aperture of 5 µm. The mobile phase contained 52% glacial acetic acid (4%) aqueous solution and 48% acetonitrile. The column temperature was set as 35 °C, and the UV-vis wavelength was set to 430 nm. A 10 µL sample was injected each time and the flow rate of the mobile phase was aet as 1 mL/min.

[5] = Dynamic vapor sorption (DVS) hygroscopicity; format: physicochemical; settings: 25 °C
Procedure: The DVS profiles of different solid forms were tested on a SMS Intrinsic instrument, UK. To make sure each sample particle size was uniform, all samples were screened at 100 mesh (ΦA = 0.148 mm). Samples of 10–20 mg were used in the experiments. The DVS data were collected in an RH range of 0–95%. If the sample mass changes by less than 0.02% in 60 min, the next RH is conducted in a 5% step.

[6] = set-up: method as in U.S. Expert Review Board; settings: adults; ref U.S. Expert Review Board; cited from earlier work

Row | SMILES | Cmax [1] [ng/mL] | Tmax [1] [h] | AUC(0-t) ([1]; 0 to 8 h, read-out: AUC0–8) [ng·h/mL] | oral bioavailability [2] | wettability (powder sinking) ([3]; SGF containing 0.1% SDS, after 10 min) | wettability (powder sinking) ([3]; SGF without surfactant) | time to reach maximum concentration in dissolution ([4]; powder dissolution, 37 °C) | solubility at 180 min ([4]; simulated gastric fluid (SGF) with 0.5% tween 80, aqueous with cosolvent or surfactant or cyclodextrin, SGF containing 0.5% tween 80, 37 °C) [µg/mL] | solubility at 180 min ([4]; simulated intestinal fluid (SIF) with 0.5% tween 80, aqueous with cosolvent or surfactant or cyclodextrin, SIF pH 6.8 containing 0.5% tween 80, 37 °C) [µg/mL] | mass change ([5]; during 0%-95% RH) | dose rated as safe as nutritional supplement [6] [mg/kg/day] | water uptake ([5]; at 40% RH) [%] | water uptake / water content ([5]; at 95% RH) [%] | water that cannot be removed ([5]; when RH decreases to 0%) [%]
1 | COc1cc(/C=C/C(=O)CC(=O)/C=C/c2ccc(O)c(OC)c2)ccc1O [CUR, Curcumin] | 67.9 | 1.5 | 110 | about 1% | only a small quantity of CUR had sunk | could not sink into the fluid | continues to increase over 180 min | 48.2 (≈ 131 µM) | 24.5 (≈ 66.5 µM) | nearly no mass change | – | – | – | –
2 | C[N+](C)(C)C[C@H](O)CC(=O)[O-] [L-CN, L-carnitine] | – | – | – | – | – | – | – | – | – | – | 20 | 39.9 | 174.2 | 23.6
